Data as given in ChEMBL document CHEMBL5518189, “Design, synthesis and biological evaluation of 1,2,3-triazole benzothiazole derivatives as tubulin polymerization inhibitors with potent anti-esophageal cancer activities” (Eur J Med Chem, 2024).

Experiments:
MGC-803 = assay: Antiproliferative activity against human MGC-803 cells assessed as inhibition of cell growth measured after 48 hrs by CCK8 method; format: functional, cell-based; conditions: MGC-803, 48 h
KYSE-30 = assay: Antiproliferative activity against human KYSE-30 cells assessed as inhibition of cell growth measured after 48 hrs by CCK8 method; format: functional, cell-based; conditions: KYSE-30, 48 h
HCT-116 = assay: Antiproliferative activity against human HCT-116 cells assessed as inhibition of cell growth measured after 48 hrs by CCK8 method; format: functional, cell-based; conditions: HCT-116, 48 h
Tubulin [1] = assay: Inhibition of tubulin polymerization (unknown origin) by spectrophotometer analysis; format: protein-complex assay, Homo sapiens
Tubulin [2] = assay: Inhibition of tubulin polymerization (unknown origin); format: protein-complex assay, Homo sapiens
HeLa = assay: Growth inhibition of human HeLa cells; format: functional
PC-3 = assay: Antiproliferative activity against human PC-3 cells assessed as inhibition of cell growth measured after72 hrs by MTT assay; format: functional, cell-based

Row | Compound | IC50 (MGC-803) [µM] | IC50 (KYSE-30) [µM] | IC50 (HCT-116) [µM] | IC50 (Tubulin [1]) [µM] | IC50 (Tubulin [2]) [µM] | GI50 (HeLa) [µM] | IC50 (PC-3) [µM]
1 | COc1ccc(CN(C(=O)Cn2cc(CSc3nc4ccccc4s3)nn2)c2ccc(OC)c(OC)c2)cc1 | 38.5 | > 80 | 52.4 |  |  |  | 
2 | COc1ccc(CN(C(=O)Cn2cc(CSc3nc4ccc(Br)cc4s3)nn2)c2cc(OC)c(OC)c(OC)c2)cc1O | 0.054 | 0.049 | 0.064 |  |  |  | 
3 | COc1cc(N(Cc2ccc(C)cc2)C(=O)Cn2cc(CSc3nc4ccccc4s3)nn2)cc(OC)c1OC | 2.35 | 1.86 | 3.97 |  |  |  | 
4 | COc1ccc(CN(C(=O)Cn2cc(CSc3nc4ccccc4s3)nn2)c2cc(OC)c(OC)c(OC)c2)cc1 | 1.03 | 1.44 | 1.68 |  |  |  | 
5 | COc1ccc(CN(C(=O)Cn2cc(CSc3nc4ccccc4s3)nn2)c2cc(OC)c(OC)c(OC)c2)cc1N | 0.088 | 0.059 | 0.094 |  |  |  | 
6 | COc1ccc(CN(C(=O)Cn2cc(CSc3nc4c(C)cccc4s3)nn2)c2cc(OC)c(OC)c(OC)c2)cc1O | 0.089 | 0.067 | 0.078 |  |  |  | 
7 | COc1ccc2nc(SCc3cn(CC(=O)N(Cc4ccc(OC)c(O)c4)c4cc(OC)c(OC)c(OC)c4)nn3)sc2c1 | 0.063 | 0.058 | 0.126 |  |  |  | 
8 | COc1cc(CN(C(=O)Cn2cc(CSc3nc4ccccc4s3)nn2)c2cc(OC)c(OC)c(OC)c2)cc(OC)c1OC | > 80 | > 80 | > 80 |  |  |  | 
9 | COc1ccc(CN(C(=O)Cn2cc(CSc3nc4ccccc4s3)nn2)c2ccccc2)cc1 | 52.5 | 62.2 | 63.7 |  |  |  | 
10 | COc1ccc(CN(C(=O)Cn2cc(CSc3nc4ccccc4s3)nn2)c2ccc(Cl)cc2)cc1 | 62.1 | > 80 | 59.5 |  |  |  | 
11 | COc1ccc(CN(C(=O)Cn2cc(CSc3nc4ccccc4s3)nn2)c2ccc(OC)cc2)cc1 | 14.5 | 28.3 | 34.2 |  |  |  | 
12 | COc1ccc(CN(C(=O)Cn2cc(CSc3nc4ccccc4s3)nn2)c2ccc(Br)cc2)cc1 | 53.3 | 35.5 | 60.3 |  |  |  | 
13 | COc1cc(N(Cc2ccc(Cl)cc2)C(=O)Cn2cc(CSc3nc4ccccc4s3)nn2)cc(OC)c1OC | > 80 | > 80 | > 80 |  |  |  | 
14 | COc1cc(N(Cc2ccc(Br)cc2)C(=O)Cn2cc(CSc3nc4ccccc4s3)nn2)cc(OC)c1OC | 74.3 | > 80 | 60.1 |  |  |  | 
15 | COc1ccc(CN(C(=O)Cn2cc(CSc3nc4ccccc4s3)nn2)c2cc(OC)c(OC)c(OC)c2)cc1[N+](=O)[O-] | 8.16 | 12.1 | 16.2 |  |  |  | 
16 | COc1ccc(CN(C(=O)Cn2cc(CSc3nc4ccccc4s3)nn2)c2cc(OC)c(OC)c(OC)c2)cc1F | 0.29 | 0.76 | 0.47 |  |  |  | 
17 | COc1cc(C(=O)c2nc3cc(Br)ccc3s2)cc(OC)c1OC |  |  |  | 13.1 |  |  | 
18 | COc1ccc(CN(C(=O)Cn2cc(CSc3nc4ccc(Cl)cc4s3)nn2)c2cc(OC)c(OC)c(OC)c2)cc1O | 0.069 | 0.072 | 0.062 |  |  |  | 
19 | COc1ccc(CN(C(=O)Cn2cc(CSc3nc4ccccc4s3)nn2)c2cc(OC)c(OC)c(OC)c2)cc1Br | 0.82 | 1.14 | 1.33 |  |  |  | 
20 | COc1cc(N(Cc2c(C)noc2C)C(=O)Cn2cc(CSc3nc4ccccc4s3)nn2)cc(OC)c1OC | > 80 | > 80 | > 80 |  |  |  | 
21 | COc1cc(N(Cc2nc3ccccc3[nH]2)C(=O)Cn2cc(CSc3nc4ccccc4s3)nn2)cc(OC)c1OC | 40.3 | 56.8 | 68.7 |  |  |  | 
22 | COc1ccc2nc(-c3ccc(-n4cnnc4-c4cc(OC)c(OC)c(OC)c4)c(C)c3)sc2c1 |  |  |  |  | 1.91 | 0.04 | 
23 | COc1cc(N(Cc2ccc(F)cc2)C(=O)Cn2cc(CSc3nc4ccccc4s3)nn2)cc(OC)c1OC | > 80 | > 80 | > 80 |  |  |  | 
24 | COc1cc2c(c(OC)c1OC)-c1ccc(OC)c(=O)cc1[C@@H](NC(C)=O)CC2 [COLCHICINE] | 0.046 | 0.048 |  |  |  |  | 
25 | COc1ccc(CN(C(=O)Cn2cc(CSc3nc4ccccc4s3)nn2)c2ccc(F)cc2)cc1 | 68.5 | 77.6 | > 80 |  |  |  | 
26 | COc1ccc(CN(C(=O)Cn2cc(CSc3nc4ccccc4s3)nn2)c2cc(OC)c(OC)c(OC)c2)cc1OC | 1.56 | 1.74 | 2.19 |  |  |  | 
27 | COc1cc(N(Cc2c(C)noc2C)C(=O)CSc2nc3ccccc3s2)cc(OC)c1OC |  |  |  |  |  |  | 2.04
28 | COc1ccc2nc(-c3cccnc3-c3cc(OC)c(OC)c(OC)c3)sc2c1 |  |  |  |  | 1.67 |  | 
29 | COc1cc(N(Cc2cccnc2)C(=O)Cn2cc(CSc3nc4ccccc4s3)nn2)cc(OC)c1OC | > 80 | > 80 | > 80 |  |  |  | 
30 | COc1ccc(CN(C(=O)Cn2cc(CSc3nc4ccccc4s3)nn2)c2ccc(C)cc2)cc1 | 46.5 | 63.1 | > 80 |  |  |  | 
